# Patent US8648066B2 (Exelixis, Inc., priority 2009, dated 2014)
# pIC50: −log10 of the molar value.
# Biological target: mTOR/GbL/Raptor (mTORC1) (Homo sapiens, UniProt P42345)
# Assay: mTOR/GbL/Raptor (mTORC1) ELISA assay
# Type: biochemical
# Details: phosphorylation of 4E-BP1; 0.2 nM mTORC1, 10 μM ATP; read-out: IC50 in this assay (mTORC1 ELISA)
# In short: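 Human mTORC1 (0.2 nM) phosphorylated 50 nM His-tagged 4E-BP1 with 10 µM ATP in HEPES pH 7.2 containing 10 mM MnCl2, 120 min at ambient temperature. Substrate was captured on Ni-chelate plates; phospho-4E-BP1 was detected by primary antibody and HRP secondary with luminescence.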
row,SMILES,pIC50
1,"CC1=C(C)C(C)(C)Cc2c1ncnc2N1CCOc2ccc(-c3cnc4nc(C)[nH]c4c3)cc2C1 [Example 552, 7-(2-methyl-1H-imidazo[4,5-b]pyridin-6-yl)-4-(6,6,7,8-tetramethyl-5,6-dihydroquinazolin-4-yl)-2,3,4,5-tetrahydro-1,4-benzoxazepine]",≥ 8.00
2,"Cc1nc2ccc(-c3ccc4c(c3)CN(c3ncnc5c(C#N)c6n(c35)CCCC6)CCO4)cc2[nH]1 [Example 51, 4-[7-(2-methyl-1H-benzimidazol-6-yl)-2,3-dihydro-1,4-benzoxazepin-4(5H)-yl]-6,7,8,9-tetrahydropyrimido[4,5-b]indolizine-10-carbonitrile]",6.00 to 6.60
3,"CC1(C)CCc2ncnc(N3CCOc4ccc(-c5cnc(C(N)=O)c(N)c5)cc4C3)c2C1 [Example 457, 3-amino-5-[4-(6,6-dimethyl-5,6,7,8-tetrahydroquinazolin-4-yl)-2,3,4,5-tetrahydro-1,4-benzoxazepin-7-yl]pyridine-2-carboxamide]",6.60 to 7.30
4,"COC(=O)Nc1nc2ncc(-c3ccc4c(c3)CN(c3ccnc5cc(OC)c(OC)cc35)CCO4)cc2[nH]1 [Example 210, methyl (6-{4-[6,7-bis(methyloxy)quinolin-4-yl]-2,3,4,5-tetrahydro-1,4-benzoxazepin-7-yl}-1H-imidazo[4,5-b]pyridin-2-yl)carbamate]",6.00 to 6.60
5,"COc1cc2ncnc(N3CCOc4ccc(-c5cnc6nc(N)[nH]c6c5)cc4C3)c2cc1OC [Example 180, 6-{4-[6,7-bis(methyloxy)quinazolin-4-yl]-2,3,4,5-tetrahydro-1,4-benzoxazepin-7-yl}-1H-imidazo[4,5-b]pyridin-2-amine]",7.30 to 8.00
6,"CC(=O)OCc1nc2c(c(N3CCOc4ccc(-c5cnc6nc(C)[nH]c6c5)cc4C3)n1)CC(C)(C)CC2 [Example 313, {6,6-dimethyl-4-[7-(2-methyl-1H-imidazo[4,5-b]pyridin-6-yl)-2,3-dihydro-1,4-benzoxazepin-4(5H)-yl]-5,6,7,8-tetrahydroquinazolin-2-yl}methyl acetate]",≥ 8.00
7,"CCNc1nc2ccc(-c3ccc4c(c3)CN(c3ncnc5c3CC(C)(C)CC5)CCO4)cc2[nH]1 [Example 255, 6-[4-(6,6-dimethyl-5,6,7,8-tetrahydroquinazolin-4-yl)-2,3,4,5-tetrahydro-1,4-benzoxazepin-7-yl]-N-ethyl-1H-benzimidazol-2-amine]",≥ 8.00
8,"CCN(C)S(=O)(=O)c1cc(-c2ccc3c(c2)CN(c2ncnc4c2CC(C)(C)CC4)CCO3)cnc1N [Example 395, 2-amino-5-[4-(6,6-dimethyl-5,6,7,8-tetrahydroquinazolin-4-yl)-2,3,4,5-tetrahydro-1,4-benzoxazepin-7-yl]-N-ethyl-N-methylpyridine-3-sulfonamide]",6.60 to 7.30
9,"CC1(C)CCc2ncnc(N3CCOc4ccc(-c5ccc6nc(NCCF)[nH]c6c5)cc4C3)c2C1 [Example 215, 6-[4-(6,6-dimethyl-5,6,7,8-tetrahydroquinazolin-4-yl)-2,3,4,5-tetrahydro-1,4-benzoxazepin-7-yl]-N-(2-fluoroethyl)-1H-benzimidazol-2-amine]",≥ 8.00
10,"CC(C)Nc1nc2ccc(-c3ccc4c(c3)CN(c3ccnc5ccccc35)CCO4)cc2[nH]1 [Example 209, N-(1-methylethyl)-6-(4-quinolin-4-yl-2,3,4,5-tetrahydro-1,4-benzoxazepin-7-yl)-1H-benzimidazol-2-amine]",≤ 5.70
11,"CC1(C)CCc2ncnc(N3CCOc4ccc(-c5cnc(OCc6ccccc6)c(NS(C)(=O)=O)c5)cc4C3)c2C1 [Example 631, N-{5-[4-(6,6-dimethyl-5,6,7,8-tetrahydroquinazolin-4-yl)-2,3,4,5-tetrahydro-1,4-benzoxazepin-7-yl]-2-[(phenylmethyl)oxy]pyridin-3-yl}methanesulfonamide]",≤ 5.70
12,"CNCc1nc2c(c(N3CCOc4ccc(-c5cnc6nc(C)[nH]c6c5)cc4C3)n1)CC(C)(C)CC2 [Example 354, 1-{6,6-dimethyl-4-[7-(2-methyl-1H-imidazo[4,5-b]pyridin-6-yl)-2,3-dihydro-1,4-benzoxazepin-4(5H)-yl]-5,6,7,8-tetrahydroquinazolin-2-yl}-N-methylmethanamine]",≥ 8.00
13,"CC1(C)CCc2nc(CO)nc(N3CCOc4ccc(-c5cnc6sc(N)nc6c5)cc4C3)c2C1 [Example 308, {4-[7-(2-amino[1,3]thiazolo[5,4-b]pyridin-6-yl)-2,3-dihydro-1,4-benzoxazepin-4(5H)-yl]-6,6-dimethyl-5,6,7,8-tetrahydroquinazolin-2-yl}methanol]",≥ 8.00
14,"Cc1nc2ccc(-c3ccc4c(c3)CN(c3cc(-c5ccccc5)nc5ccccc35)CCO4)cc2[nH]1 [Example 100, 7-(2-methyl-1H-benzimidazol-6-yl)-4-(2-phenylquinolin-4-yl)-2,3,4,5-tetrahydro-1,4-benzoxazepine]",6.00 to 6.60
15,"CNS(=O)(=O)c1cc(-c2ccc3c(c2)CN(c2ncnc4c2CC(C)(C)C=C4)CCO3)cnc1N [Example 401, 2-amino-5-[4-(6,6-dimethyl-5,6-dihydroquinazolin-4-yl)-2,3,4,5-tetrahydro-1,4-benzoxazepin-7-yl]-N-methylpyridine-3-sulfonamide]",≥ 8.00
16,"CC1=Cc2ncnc(N3CCOc4ccc(-c5cnc(N)c(S(=O)(=O)NCC6CCN(C)CC6)c5)cc4C3)c2CC1(C)C [Example 420, 2-amino-N-[(1-methylpiperidin-4-yl)methyl]-5-[4-(6,6,7-trimethyl-5,6-dihydroquinazolin-4-yl)-2,3,4,5-tetrahydro-1,4-benzoaxepin-7-yl]pyridine-3-sulfonamide]",6.00 to 6.60

# The next lines start with the values.
row,pIC50,SMILES
1,≥ 8.00,"Cc1nc2ccc(-c3ccc4c(c3)CN(c3nc(CO)nc(C)c3C(C)C)CCO4)cc2[nH]1 [Example 687, {4-methyl-6-[7-(2-methyl-1H-benzimidazol-5-yl)-2,3-dihydro-1,4-benzoxazepin-4(5H)-yl]-5-(1-methylethyl)pyrimidin-2-yl}methanol]"
2,≤ 5.70,"COCCOc1ccc2ncnc(N3CCOc4ccc(-c5ccc6nc(C)[nH]c6c5)cc4C3)c2c1 [Example 163, 7-(2-methyl-1H-benzimidazol-6-yl)-4-(6-{[2-(methyloxy)ethyl]oxy}quinazolin-4-yl)-2,3,4,5-tetrahydro-1,4-benzoxazepine]"
3,≥ 8.00,"CC(=O)OCc1nc(C)c(Cc2ccc(F)cc2)c(N2CCOc3ccc(-c4ccc5[nH]c(C)nc5c4)cc3C2)n1 [Example 311, {5-[4(fluorophenyl)methyl]-4-methyl-6-[7-(2-methyl-1H-benzimidazol-5-yl)-2,3-dihydro-1,4-benzoxazepin-4(5H)-yl]pyrimidin-2-yl}methyl acetate]"
4,≥ 8.00,Cc1nc(CN(C)C)nc(N2CCOc3ccc(-c4ccc5[nH]c(CF)nc5c4)cc3C2)c1Cc1ccc(F)cc1 [Example 321]
5,6.00 to 6.60,"CCNc1nc(N2CCOc3ccc(-c4ccc5nc(NCC)[nH]c5c4)cc3C2)c2ccccc2n1 [Example 270, N-ethyl-4-{7-[2-(ethylamino)-1H-benzimidazol-6-yl]-2,3-dihydro-1,4-benzoxazepin-4(5H)-yl}quinazolin-2-amine]"
6,6.00 to 6.60,"COc1ccc2nc(Cl)nc(N3CCOc4ccc(-c5ccc6nc(C)[nH]c6c5)cc4C3)c2c1 [Example 33, 4-[2-chloro-6-(methyloxy)quinazolin-4-yl]-7-(2-methyl-1H-benzimidazol-6-yl)-2,3,4,5-tetrahydro-1,4-benzoxazepine]"
7,6.60 to 7.30,"Cc1nc2ccc(-c3ccc4c(c3)CN(c3ncnc(C)c3CC3CC3)CCO4)cc2[nH]1 [Example 69, 4-[5-(cyclopropylmethyl)-6-methylpyrimidin-4-yl]-7-(2-methyl-1H-benzimidazol-6-yl)-2,3,4,5-tetrahydro-1,4-benzoxazepine]"
8,6.00 to 6.60,"COc1ccc2c(N3CCOc4ccc(-c5cnc6nc(C)[nH]c6c5)cc4C3)nc(CN(C)C)nc2c1 [Example 613, N,N-dimethyl-1-{4-[7-(2-methyl-1H-imidazo[4,5-b]pyridin-6-yl)-2,3-dihydro-1,4-benzoxazepin-4(5H)-yl]-7-(methyloxy)quinazolin-2-yl}methanamine]"
9,6.60 to 7.30,"CCNc1nc2ccc(-c3ccc4c(c3)CN(c3cc(C)nc5ccccc35)CCO4)cc2[nH]1 [Example 246, N-ethyl-6-[4-(2-methylquinolin-4-yl)-2,3,4,5-tetrahydro-1,4-benzoxazepin-7-yl]-1H-benzimidazol-2-amine]"
10,7.30 to 8.00,"Cc1ncnc(N2CCOc3ccc(-c4ccc5nc(N)nn5c4)cc3C2)c1Cc1ccc(F)cc1 [Example 141, 6-(4-{5-[(4-fluorophenyl)methyl]-6-methylpyrimidin-4-yl}-2,3,4,5-tetrahydro-1,4-benzoxazepin-7-yl)[1,2,4]triazolo[1,5-a]pyridin-2-amine]"
11,≥ 8.00,"Cc1nc(N)nc(N2CCOc3ccc(-c4cnc5sc(N)nc5c4)cc3C2)c1Cc1ccc(F)cc1 [Example 692, 6-(4-{2-amino-5-[(4-fluorophenyl)methyl]-6-methylpyrimidin-4-yl}-2,3,4,5-tetrahydro-1,4-benzoxazepin-7-yl)[1,3]thiazolo[5,4-b]pyridin-2-amine]"
12,6.00 to 6.60,"Cc1nc(CN(C)C)nc(N2CCOc3ccc(-c4cnc5sc(N)nc5c4)cc3C2)c1C [Example 671, 6-(4-{2-[(dimethylamino)methyl]-5,6-dimethylpyrimidin-4-yl}-2,3,4,5-tetrahydro-1,4-benzoxazepin-7-yl)[1,3]thiazolo[5,4-b]pyridin-2-amine]"
13,≥ 8.00,"Cc1nc2cc(-c3ccc4c(c3)CN(c3nc(CN(C)C)nc(C)c3Cc3ccc(F)cc3)CCO4)cnc2[nH]1 [Example 348, 1-{5-[(4-fluorophenyl)methyl]-4-methyl-6-[7-(2-methyl-3H-imidazo[4,5-b]pyridin-6-yl)-2,3-dihydro-1,4-benzoxazepin-4(5H)-yl]pyrimidin-2-yl}-N,N-dimethylmethanamine]"
